Results reported in patent publication US20160235677A1, “METHOD OF CONVERTING A CRYSTALLINE COMPOUND TO AN AMORPHOUS COMPOUND, METHOD OF INCREASING THE SOLUBILITY OF A CRYSTALLINE COMPOUND IN A BIORELEVANT FLUID, AND NANOPARTICLES THAT ACHIEVE SUPERSATURATION” (Nanocopoeia, LLC., priority 2014, published 2016).
Values after ≈ are worked out from the molar mass of the structure shown. Counter-ions that a name gives are not always drawn. Like-named read-outs stand apart in the source and are kept apart here. One block for each compound: values may come before it.

Columns and labels:
[1] = XRD and DSC determinations of physical state of ENS-processed powders (Table B); type: physicochemical
Procedure: Thermal analysis is conducted using a TA Instruments Model Q200 DSC (New Castle, Del.) equipped with an RCS-90 refrigerated cooling system. Samples, in an amount of 3.5 mg±1.0 mg, are weighed into TA Instruments T-Zero aluminum pans and closed with lids. […] Nitrogen is used as the purge gas at a flow rate of 50 mL/min. All data analyses are performed using TA Universal Analysis 2000 software (TA Instruments, New Castle, Del.). T-Zero cell constant and temperature/enthalpy calibrations are conducted with the use of sapphire and indium standards, respectively.
X-ray powder diffraction is performed at room temperature using a Bruker D8 Discover using a Cu Kα radiation, point source filtered with a graphite monochromator and a Bruker Hi-Star two-dimensional x-ray detector (Bruker, Karlsruhe, Germany). Powder samples are pressed onto a sample holder made of single-crystal quartz cut off-axis. The reflected intensity is collected at 0.04° resolution from 2Θ=2° to 62° with an acquisition time of 20 minutes. Data analysis is performed using the JADE 8.0 software package (Materials Data Inc., Livermore, Calif.) with whole pattern fitting. The test method has a detection limit of 2% crystallinity.
A series of crystalline drug and polymer combinations were dissolved in solvents in the amounts and at the ratios set forth in Table B. The solutions were then sprayed using the ENS system described above. The resulting dry compounds were collected and analyzed according to the XRD, DSC and SEM test methods.

[2] = Differential Scanning Calorimetry (DSC) crystallinity / physical state; type: physicochemical; settings: griseofulvin formulations
Procedure: Controls and Examples were tested according to the DSC test method.

[3] = test system: Caco-2 monolayers; assay: Caco-2 Monolayer Test Method; type: in vitro ADME; settings: Caco-2, FIGS. 8A and 8B, result in words
Procedure: Caco-2 monolayers are prepared in Millipore 96-cell Caco-2 plates and are used after a 3-week differentiation period. The monolayers separate the apical, or donor well, from the basolateral, or recipient well. The buffer used for the apical side is 1.98 g/L glucose in 10 mM HEPES, Hank's Balanced Salt Solution (HBSS) lx, with calcium, magnesium, without phenol red (HyClone, Logan, Utah) pH 7.4. The impermeable dye Lucifer yellow (in an amount of 100 μM) is added to test monolayer integrity. The basolateral side buffer is buffer, pH 7.4, without dye. […] The amount of test powder is selected to assure that if the powder was completely dissolved, the amount is sufficient to achieve ˜12 to 13 times the saturation concentration of the compound of interest previously measured in HBSS (15 μg/mL), in other words, a supersaturated solution. […] Where the compound of interest is not a substrate for p-glycoprotein (pGP), B→A efflux is not measured.
Buffer test samples are added to apical wells at 1 h after preparation and buffer alone is added to the basolateral side. […] The plates are assumed to be intact if there is no increase in fluorescence from leaking Lucifer yellow dye from the apical side. Individual cell monolayers are assumed intact if there is no increase in fluorescence in aliquots taken from the basolateral wells. […]

[4] = itraconazole, cited from earlier work
[5] = oral, taken immediately after a full meal or with an acidic beverage; cited from earlier work
[6] = Dissolution in Biorelevant Media with pH Transition (itraconazole, FaSSGF to FaSSIF); type: physicochemical
Procedure: (§1) Dissolution testing, based on pH change from acidic-to-neutral media, is performed according to USP 29 Apparatus 2 Guidelines (United States Pharmacopeial Convention. Chapter <711> Dissolution, Stage 6 Harmonization, Official Dec. 1, 2011. USP website: http://www.usp.org/sites/default/files/usp_pdf/EN/USPNF/2011-02-25711DISSOLUTION.pdf).
Where specified below, the USP method was modified to use smaller 100 mL glass vessels with matching sized paddles operated at a […] speed of 100 rpm in biorelevant media using a VanKel 7000 Dissolution Tester (VanKel Technology Group, Gary, N.C.).
Biorelevant media is prepared using FaSSIF, FeSSIF & FaSSGF Powder (biorelevant.com) a commercial source of sodium taurocholate and lecithin, hereafter abbreviated “SIF Powder.” Fasted state simulated gastric fluid (FaSSGF) and Fasted state simulated intestinal fluid (FaSSIF) are prepared using the formula provided by the vendor at http://biorelevant.com/fassif-fessif-fassgf-dissolution-media/fasted-fed-state-simulated-intestinal-gastric-fluid/how-to-make/, after specifying the desired volume quantity of medium to be prepared. For example, for 500 mL of FaSSGF, the test medium contains sodium chloride, 1 g, and SIF Powder, 30 mg. Solids are dissolved in approximately 480 mL deionized water. The FaSSGF solution is adjusted to a final pH of 1.6 using concentrated hydrochloric acid, and brought to a final volume of 500 mL by adding deionized water.
For two-stage dissolution testing, which consists of a gastric stage followed by an intestinal phase, the compound of interest is first added to a volume of FaSSGF that is equivalent to ¾ of the final test volume. For example, if the test vessel is 100 mL, the volume of FaSSGF is 75 mL. After allowing dissolution to proceed for 2 hours or another specified time interval, 25 mL of a Transition Medium is added to create a final volume of 100 mL in this example, with a final pH of 6.5. The final medium is equivalent in composition to FaSSIF, as per the formula provided at the above link at biorelevant.com.
The Transition Medium is prepared first by making Transition Buffer, 500 mL, which contains sodium chloride, 9.37 g, sodium hydroxide, 2.5 g, sodium phosphate monobasic dihydrate, 8.94 g. […] Larger quantities are prepared as required, maintaining the relative amounts each of Transition Buffer and SIF Powder.
The dissolution test is performed by weighing the test formulation containing the test compound, adjusting weights to achieve an equivalent amount of test compound across the various test formulations. […] Starting time for the dissolution test is recorded with the addition of the first drop. […]

[7] = itraconazole; cited from earlier work
[8] = Dissolution in Buffer Media with pH Transition (itraconazole); type: physicochemical
Procedure: as §1
Where specified below, the USP method was modified to use smaller 100 mL glass vessels with matching sized paddles operated at a speed of 100 rpm in buffer media using a VanKel 7000 Dissolution Tester (VanKel Technology Group, Gary, N.C.).
Examples A2, A3, A5 and A6 and Controls A1-A6 were tested according to the Dissolution in Buffer Media with pH Transition Test method. […] The solution was left stirring for 120 minutes, after which 3 mL aliquots were drawn from each vessel. Immediately after the aliquots were removed from the vessels, 25 mL of 0.2 M tribasic sodium phosphate buffer was added to each vessel to produce in a dissolution media having a pH 6.8±0.05. Subsequently, 3 mL aliquots were drawn from each vessel after 135 min, 150 min, 180 min, 210 min, 240 min, and 300 min. The aliquots were then analyzed to determine the concentration of itraconazole present in the media. The results were recorded in μg/mL.
Since only one sample was collected before the pH transition, the AUC, Tmax and Cmax were calculated based on the results following pH transition.

[9] = Equilibrium / saturation solubility in test media; type: physicochemical; settings: ITZ, experimentally determined
[10] = itraconazole, assumed value; cited from earlier work
[11] = after pH transition to FaSSIF pH 6.5±0.05

Compound: C[C@@H](O[C@H]1OCCN(Cc2n[nH]c(=O)[nH]2)[C@H]1c1ccc(F)cc1)c1cc(C(F)(F)F)cc(C(F)(F)F)c1 [Aprepitant]
- XRD and DSC determinations of physical state (amorphous or crystalline) [1]: mainly amorphous material.

Compound: CN1CC2c3ccccc3Oc3ccc(Cl)cc3C2C1 (stereo not drawn) [Asenapine Maleate]
- XRD and DSC determinations of physical state (amorphous or crystalline) [1]: with largely amorphous material.

Compound: COC1=CC(=O)C[C@@H](C)[C@]12Oc1c(Cl)c(OC)cc(OC)c1C2=O [Control 3, griseofulvin]
- calculated levels of crystallinity based on DSC [2]: 100%
- initial concentration and flux compared with unprocessed GF powder [3]: performed similarly to unprocessed GF powder

Compound: CCC(C)n1ncn(-c2ccc(N3CCN(c4ccc(OCC5COC(Cn6cncn6)(c6ccc(Cl)cc6Cl)O5)cc4)CC3)cc2)c1=O (stereo not drawn) [Control A1, Itraconazole]
- reported aqueous solubility ([4]; acidic media): 4 µg/mL
- reported aqueous solubility ([4]; neutral pH): 0.001 µg/mL
- maximum absorption [5]: 55%
- Neutral Phase AUC (SD) (μg · hr/mL) [6, 11]: 0.75 (0.221) μg · hr/mL
- Neutral Phase Cmax [6, 11]: 291 ng/mL
- Neutral Phase Tmax [6, 11]: 2.25 h
- Acid Phase C120 ([6]; itraconazole concentration at 120 minutes in 75 mL FaSSGF, 6 mg itraconazole equivalent): 0.112 µg/mL
- log P [7]: 6.2
- pKa [7]: 3.7
- Neutral Phase Tmax ([8]; buffer, after pH transition to 6.8±0.05): 3.50 h
- Neutral Phase AUC (SD) (μg · hr/mL) ([8]; buffer, after pH transition to 6.8±0.05, up to 300 min): 0.218 (0.078) μg · hr/mL
- Neutral Phase Cmax ([8]; buffer, after pH transition to 6.8±0.05 with 0.2 M tribasic sodium phosphate): 61 ng/mL
- Acid Phase C120 ([8]; itraconazole concentration at 120 minutes in 75 mL 0.1 N HCl pH 1, 6 mg itraconazole equivalent): 1.50 µg/mL
- solubility in FaSSIF medium [9]: 0.08 µg/mL (≈ 0.113 µM)
- assumed solubility in 0.1 N HCl [10]: 4 µg/mL

Now from value to compound:

- XRD and DSC determinations of physical state (amorphous or crystalline) [1]: XRD and DSC consistent with crystalline
Compound: O=C(O)Cc1ccccc1Nc1c(Cl)cccc1Cl [Diclofenac]

- XRD and DSC determinations of physical state (amorphous or crystalline) [1]: with mainly amorphous material.
Compound: COc1ccc2c(c1)c(CC(=O)O)c(C)n2C(=O)c1ccc(Cl)cc1 [Indomethacin]
